Measured values as given in publication PMC9014415, “Repositioning of a Diaminothiazole Series Confirmed to Target the Cyclin-Dependent Kinase CRK12 for Use in the Treatment of African Animal Trypanosomiasis” (Journal of Medicinal Chemistry, 2022).
Values after ≈ are worked out from the molar mass of the structure shown. “Also recorded” adds a separate entry of the source.

Experiments:
T. congolense = assay: In vitro drug sensitivity assay, T. congolense (IL3000); assay type: cell-based; conditions: Trypanosoma congolense; IL3000 strain
Experimental: 1.2 In vitro drug sensitivity assays - Trypanosoma congolense
EC50 values for test compounds against T. congolense (IL3000 strain) were conducted as previously described3 with minor modifications.4 Briefly, trypanosome cell densities were determined using a CASY cell counter (Schärfe) and diluted to a seeding density of 2 x 105 trypanosomes/mL. BSF trypanosomes were grown in HMI-9 (IMDM) media supplemented with 20% (v/v) bovine serum.1 Test compounds were resuspended to a final concentration of 10 mg/mL in DMSO. Assays plates were incubated at 34 °C with 5 % CO2, for a total of 69 h, prior to addition of 10 µL of Resazurin (12.5 mg in 100 mL phosphate buffered saline, Aldrich) into each well, followed by a further 3 h incubation. Absorbance was read using a SpectraMax (Gemini XS) fluorescence reader at an excitation wavelength of 536 nm and an emission wavelength of 588 nm. EC50 values were determined using SOFTmax Pro 5.2 analysis software. All experiments were conducted with technical duplicates, and at least three biological replicates. […]

T. vivax [1] = assay: Ex vivo drug sensitivity assay, T. vivax (STIB 719/ILRAD 560); assay type: cell-based; conditions: Trypanosoma vivax
Experimental: Test compounds were resuspended to a final concentration of 10 mg/mL in DMSO. […]
1.3 Ex vivo drug sensitivity assays - Trypanosoma vivax
Since T. vivax cannot be cultured axenically, BSF trypanosomes were harvested from an infected mouse with high parasitemia via cardiac puncture and used directly in ex vivo assays. EC50 values were determined against T, vivax (STIB 719/ ILRAD 560) as previously described3, with minor modifications. Briefly, cell densities were determined using a Neubauer chamber and then diluted to a seeding density of 4 x 105 trypanosomes / mL. BSF trypanosomes were cultured in HMI-9 (IMDM) media containing 20% (v/v) bovine serum. Assay plates were incubated at 37 °C with 5 % CO2, for a total of 45 h prior to addition 10 µL of Resazurin (12.5 mg in 100 mL phosphate buffered saline, Aldrich) into each well, followed by a further 3 h incubation. Absorbance was read using a SpectraMax (Gemini XS) fluorescence reader at an excitation wavelength of 536 nm and an emission wavelength of 588 nm. EC50 values were determined using SOFTmax Pro 5.2 analysis […]
software. […]

T. vivax [2] = assay: NMRI mouse efficacy model, T. vivax; assay type: in vivo, Trypanosoma vivax; conditions: for Efficacy, T. vivax / Efficacy at 10 mg/kg SC for 4 days, T. vivax: mice; for Efficacy at 10 mg/kg SC for 4 days, T. vivax: 10 mg/kg SC once daily for 4 days
Experimental: 3. In vivo efficacy studies
The T. congolense (IL3000) and T. vivax (ILRAD V34) cell lines7, 8, both originating from Kenya, were used in the following in vivo mouse studies. For studies in cattle, either Trypanosoma congolense (savannah) KONT 2/133, 224) or T. vivax STIB 719 was used.
3.1 Mouse efficacy studies for T. brucei brucei.
Mouse efficacy studies for T. brucei brucei were carried out as previously detailed.9 3.2 NMRI mouse efficacy studies for T. congolense and T. vivax.
Mouse models of infections were carried out using standardized protocols. Briefly, 1 mL samples of cryopreserved T. congolense, or T. vivax-infected blood harvested directly from an infected mouse, were diluted with Hanks Balanced Salt Solution plus 20 mM glucose (HBSS+G) to 5 x 10^4 trypomastigotes/mL (5 x 105 for T. vivax). Female mice (NMRI) were inoculated IP on day 0 with 0.2 mL/animal (equivalent to ~ 1 x 104 T. congolense or ~ 1 x 105 T. vivax per animal). The level of parasitaemia was inspected microscopically on day 3 using tail blood smears, counting 20 high powered fields (× 400 magnification). For untreated or treated animals whose tail smears exceeded 50 parasites/field, precise parasite levels were established using a Neubauer haemocytometer; mice with a parasite burden over 1 x 108 were promptly and humanely terminated (T. congolense only, from our experience the mice will not survive for a further 24 h). Alternatively, in the case of T. vivax-infected mice the immune system will bring the infection to a sub-lethal level (below limit of detection) […]
followed by cycles of high and low parasitaemia. Eventually mice infected with T. vivax succumb to the infection between 30 – 60 days post-infection.
Suppression of parasitaemia - mouse
On day 3 post-infection, animals were randomly allocated to groups, with 3 mice/group. Infected animals were dosed with one of the following: diaminazene diaceturate IP. – 40 mg/kg once only as a control (early-stage trypanocide used to clear the parasites in the systemic circulation and in tissues other than CNS), compound 1 (SC) at 3, 10, 30 and 50 mg free base/kg twice and once daily for 4 d or a single dose, or compound 2 (SC) at 3 and 10 mg free base /kg once daily for 4 d, once daily for 2 d or a single dose, one group of 3 mice acted as an untreated control group. The dose solutions were prepared daily, using 5% DMSO: 40% PEG400: 55% MilliQ H2O for test compounds and 10% DMSO: 90% peanut oil for standard drugs. Alternatively, compound 2 was delivered for 48 h via SC implanted ALZET osmotic pumps (6, 12, 25 and 50 mg free base/mL, vehicle: 50% DMSO […]
and 50% deionized water).
Response to treatment was determined by monitoring parasitaemia twice a week until day 21.
After day 21, the mice were checked once a week until 63 d post-treatment. Mice surviving to the end of the experiment, and with blood smears clear of parasites, were considered cured. […]
The parasites were obtained from a donor calf. This isolate is resistant to diminazene (20 mg/kg) and isometamidium (1 mg/kg) in cattle, and diminazene (7 mg/kg) and isometamidium (>1 mg/kg) in mice. Calves were parasitaemic by study day 6. Calves (n = 5) were treated with compound 1 (5 mg/kg, SC, twice 12 h apart) on study

[3] = Aqueous kinetic solubility by laser nephelometry; assay type: physicochemical; conditions: MilliQ water with 2.5% DMSO, read-out: Sol (kinetic solubility); for solubility kinetic at 24 h: pH 7.4, range 250-12 µM
Experimental: 2. Drug metabolism and pharmacokinetics
The aqueous solubility of test compounds was measured using laser nephelometry. Compounds were subject to serial dilution from 10 mM to 0.5 mM in DMSO. Aliquot were then mixed with MilliQ water to obtain an aqueous dilution plate with a final concentration range of 250 – 12 µM. The final DMSO concentration in these plates was 2.5%. Triplicate aliquots were transferred to a flat-bottomed polystyrene plate which was immediately read on a NEPHELOstar nephelometer (BMG Lab Technologies). The laser scatter caused by insoluble particulates (relative nephelometry units, RNU) was plotted against compound concentration using a segmental regression fit, with the point of inflection being quoted as the compound’s aqueous solubility (µM).
Solubility of compound 1 was measured by a different method. Here, compound 1 was dissolved in DMSO to give a 10 mM solution and solubility test samples prepared by adding a volume (5 µL) of this stock solution to phosphate buffered saline, pH 7.4 (195 µL, Sigma-Aldrich). This

CC(C)CS(=O)(=O)N[C@H]1CC[C@H](Nc2nc(N)c(C(=O)c3c(F)cccc3F)s2)CC1 [Compound 1, N-((trans)-4-((4-Amino-5-(2,6-difluorobenzoyl)thiazol-2-yl)amino)cyclohexyl)-2-methylpropane-1-sulfonamide]
EC50 (T. congolense): 18 nM
EC50 (T. vivax [1]): 95 nM
Acute T. vivax efficacy in mice (T. vivax [2]; 3 mg/kg bid SC for 4 days): Full cure
T. vivax efficacy in mice (T. vivax [2]; 3 mg/kg once daily for 4 days, SC): sterile cure
Acute T. vivax efficacy in mice (T. vivax [2]; 10 mg/kg bid SC for 4 days): Full cure
Acute T. vivax efficacy in mice (T. vivax [2]; 10 mg/kg, single dose, SC): Partial cure (1/3)
Acute T. vivax efficacy in mice (T. vivax [2]; 30 mg/kg, single dose, SC): sterile cure; also recorded: Full cure

CC(C)CS(=O)(=O)N[C@H]1CC[C@H](Nc2nc(N)c(C(=O)c3c(Cl)cccc3Cl)s2)CC1 [Compound 10, N-((trans)-4-((4-Amino-5-(2,6-dichlorobenzoyl)thiazol-2-yl)amino)cyclohexyl)-2-methylpropane-1-sulfonamide]
EC50 (T. congolense): 0.4 nM
EC50 (T. vivax [1]): 0.47 nM
solubility kinetic at 24 h [3]: 53 µM (≈ 26.8 µg/mL)
Efficacy, T. vivax (T. vivax [2]; 3 mg/kg for 4 days): Full cure (3/3) 3 mg/kg

CNCc1cc(F)c(C(=O)c2sc(N[C@H]3CC[C@H](NS(=O)(=O)CC(C)C)CC3)nc2N)c(F)c1.Cl [Compound 8, N-((trans)-4-((4-Amino-5-(2,6-difluoro-4-((methylamino)methyl)benzoylthiazol-2-yl)amino)cyclohexyl))-2-methylpropane-1-sulfonamide Hydrochloride]
EC50 (T. congolense): 1.3 nM
EC50 (T. vivax [1]): 0.68 nM
solubility kinetic ([3]; range 250-12 µM): > 250 µM
Efficacy at 10 mg/kg SC for 4 days, T. vivax (T. vivax [2]): Full cure (3/3)

CC(C)CS(=O)(=O)N[C@H]1CC[C@H](Nc2nc(N)c(C(=O)c3c(F)cc(CN(C)C)cc3F)s2)CC1 [Compound 2, N-(trans)-[4-[[4-Amino-5-[4-(dimethylaminomethyl)-2,6-difluoro-benzoyl]thiazol-2-yl]amino]cyclohexyl]-2-methyl-propane-1-sulfonamide]
EC50 (T. congolense): 3.2 nM
EC50 (T. vivax [1]): 0.08 nM
solubility kinetic at 24 h [3]: 250 µM (≈ 132 µg/mL)
Efficacy, T. vivax (T. vivax [2]; 3 mg/kg for 4 days, 3 mg/kg): Full cure (3/3) 3 and 10 mg/kg for 4 days 10 mg/kg for 2 days; also recorded: Full cure (3/3); 3 and 10 mg/kg for 4 days, 10 mg/kg for 2 days
Efficacy at 10 mg/kg SC for 4 days, T. vivax (T. vivax [2]; 10 mg/kg): fully curative; also recorded: Full cure (3/3) 3 and 10 mg/kg for 4 days 10 mg/kg for 2 days; also recorded: Full cure (3/3); 3 and 10 mg/kg for 4 days, 10 mg/kg for 2 days
Efficacy, T. vivax (T. vivax [2]; 10 mg/kg for 2 days, 10 mg/kg): Full cure (3/3) 3 and 10 mg/kg for 4 days 10 mg/kg for 2 days; also recorded: Full cure (3/3); 3 and 10 mg/kg for 4 days, 10 mg/kg for 2 days
